Data on one molecule can be found in patent US12577238B2, “Compositions and methods for modulating inflammatory and degenerative disorder” (University of Southern California, priority 2018, dated 2026).

Each structure is given as a SMILES string. Entries after “also recorded” stand apart in the source; their conditions may differ.

Assay [1] in a line: Rat model of degenerative osteoarthritis (partial meniscectomy). It counts as in vivo. The procedure: In this system, 50% of the meniscus is surgically removed, promoting joint instability similar to what is commonly observed in human OA and degeneration of articular cartilage in 3-6 weeks (FIGS. 12A and B). RCGD 423 loaded onto PLGA (poly(lactic-co-glycolic acid)) microspheres for slow release, or microspheres alone, were injected into the joint space at the time of surgery and 3 weeks later.

The next assay has as its target T1, gp130 homodimers (Homo sapiens, UniProt P40189).
T1 construct: Myc; expressed in transfected cells; host or cells: 293T
T1 sequence (P40189 23-918) 1: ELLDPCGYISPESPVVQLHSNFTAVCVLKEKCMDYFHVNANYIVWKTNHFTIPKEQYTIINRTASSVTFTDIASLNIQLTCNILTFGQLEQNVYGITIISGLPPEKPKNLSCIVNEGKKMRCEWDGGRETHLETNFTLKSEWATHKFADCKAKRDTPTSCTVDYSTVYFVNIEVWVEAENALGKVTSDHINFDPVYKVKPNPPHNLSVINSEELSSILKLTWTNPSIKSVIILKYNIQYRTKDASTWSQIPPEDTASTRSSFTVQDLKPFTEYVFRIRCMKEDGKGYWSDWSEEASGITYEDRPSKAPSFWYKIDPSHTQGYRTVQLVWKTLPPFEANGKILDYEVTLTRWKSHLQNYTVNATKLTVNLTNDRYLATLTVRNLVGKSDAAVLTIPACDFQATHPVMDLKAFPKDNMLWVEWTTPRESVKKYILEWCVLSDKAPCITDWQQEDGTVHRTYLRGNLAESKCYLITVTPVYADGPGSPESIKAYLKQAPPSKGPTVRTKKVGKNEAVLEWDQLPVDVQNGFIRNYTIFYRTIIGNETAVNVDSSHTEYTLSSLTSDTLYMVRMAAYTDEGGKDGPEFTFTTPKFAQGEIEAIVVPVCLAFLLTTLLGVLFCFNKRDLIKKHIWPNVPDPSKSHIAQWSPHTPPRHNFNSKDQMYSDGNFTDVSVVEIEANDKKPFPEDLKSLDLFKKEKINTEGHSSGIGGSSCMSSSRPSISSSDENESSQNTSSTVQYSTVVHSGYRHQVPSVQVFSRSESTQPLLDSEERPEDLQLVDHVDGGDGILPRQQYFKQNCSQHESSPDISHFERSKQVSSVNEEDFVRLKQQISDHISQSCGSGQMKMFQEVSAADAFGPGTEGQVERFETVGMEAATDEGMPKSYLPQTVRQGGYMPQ
T1 sequence (P40189 23-918) 2: T1 sequence (P40189 23-918) 1
Put plainly: Tagged gp130 homodimer detection in 293T cells. In kind it is cell-based. Particulars: tagged gp130 in 293T cells. The procedure:
(§1) Based on this, it was hypothesized that RCGD 423 acts through gp130 by promoting stable homodimers in the absence of ligand. To confirm that RCGD 423 acts through gp130, the gp130 null cell line Ba/F3 cells was used. Ba/F3 cells were transfected with either full-length gp130 or a mutant gp130 lacking domain 2 (ΔD2), which contains the predicted binding site for RCGD 423 (FIG. 7). […] To verify the specificity of RCGD 423 in vivo, the compound was injected into rat knees in the presence of the small molecule gp130 inhibitor SC144 or a blocking antibody specific for domain 2 of gp130. […] The ability of RCGD 423 to act via inducing formation of gp130 homodimers was then examined by expressing tagged versions of gp130 in 293T cells. In this system, only homodimeric complexes can contain both tagged versions of gp130 (FIG. 9).

The next assay addresses T2, gp130 (Rattus norvegicus, UniProt P40190).
T2 construct: from tissue; host or cells: rat knee joint in vivo (Sprague-Dawley wild-type in the CFA model)
T2 sequence (P40190 23-918): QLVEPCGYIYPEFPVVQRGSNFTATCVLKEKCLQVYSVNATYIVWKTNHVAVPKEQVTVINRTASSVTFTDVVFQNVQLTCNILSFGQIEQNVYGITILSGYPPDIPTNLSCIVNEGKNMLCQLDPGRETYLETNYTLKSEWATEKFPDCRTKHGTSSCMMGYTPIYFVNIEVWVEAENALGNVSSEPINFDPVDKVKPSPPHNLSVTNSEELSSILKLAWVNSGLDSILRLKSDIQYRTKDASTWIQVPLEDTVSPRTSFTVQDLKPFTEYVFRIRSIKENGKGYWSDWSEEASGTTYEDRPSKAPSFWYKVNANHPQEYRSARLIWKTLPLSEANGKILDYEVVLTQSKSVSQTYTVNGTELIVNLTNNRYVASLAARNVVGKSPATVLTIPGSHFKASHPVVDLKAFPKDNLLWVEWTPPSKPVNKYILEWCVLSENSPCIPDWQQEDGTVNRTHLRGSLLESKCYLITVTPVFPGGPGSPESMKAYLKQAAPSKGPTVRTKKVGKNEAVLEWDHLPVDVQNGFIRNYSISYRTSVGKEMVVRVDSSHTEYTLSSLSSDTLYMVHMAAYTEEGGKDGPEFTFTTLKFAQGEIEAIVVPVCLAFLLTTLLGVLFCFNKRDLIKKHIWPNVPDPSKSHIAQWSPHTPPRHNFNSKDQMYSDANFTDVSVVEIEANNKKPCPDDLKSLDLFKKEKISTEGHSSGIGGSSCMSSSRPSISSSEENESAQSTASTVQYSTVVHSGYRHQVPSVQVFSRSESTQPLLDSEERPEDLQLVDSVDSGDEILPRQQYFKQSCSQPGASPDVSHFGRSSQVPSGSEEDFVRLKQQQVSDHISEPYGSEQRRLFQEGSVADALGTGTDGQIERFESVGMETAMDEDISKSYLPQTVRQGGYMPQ
Put plainly: Injection into rat knees, pSTAT3 and MYC levels. It counts as in vivo. Particulars: injection into rat joints. As to the method: as §1

The subject of another assay is adult human synoviocytes. Description: ERK and NF-κB downstream of OSM and IL-6 in synoviocytes. In kind it is cell-based. As to the method:
Accordingly, the ability of RCGD 423 to suppress signaling downstream of IL-6 and OSM in synoviocytes and peripheral blood mononuclear cells was assessed (FIG. 14).

Take `Brc1ccc(Nc2nc(-c3ccccc3)cs2)cc1` [RCGD 423]: the OARSI scores result in assay [1] (6 weeks, loaded onto PLGA microspheres, injected into joint space at surgery and 3 weeks later) is listed as “highly significantly lower OARSI scores”. In addition, the “expression of proteolytic (catabolic) enzymes after joint injury” value in assay [1] (rat OA model) is “decreased the expression of proteolytic enzymes; also recorded: decreased the levels of catabolic enzymes”. In assay [1] (rats following partial meniscectomy), the “formation, size and maturity of osteophytes” value was “inhibited both the formation and maturity of osteophytes; also recorded: reduced the size and maturity of osteophytes”. Further, on gp130 homodimers, the “detection of gp130 homodimers (gp130-Myc)” value was “only in the presence of RCGD 423 could gp130 homodimers be detected; also recorded: gp130-Myc was only detectable in the presence of RCGD 423”. The “pSTAT3 and MYC levels in rat joints” value on gp130 is “increased pSTAT3 and MYC levels”. Also, the “increases in ERK and NF-κB levels downstream of OSM and IL-6” value in the assay on adult human synoviocytes was “inhibits increases in ERK and NF-κB levels”.
